The numbers were not newly measured in US20090169606A1, “Low Flexural Strength Transdermal Tobacco Alkaloid Patch” (Fertin Pharma, priority 2005, published 2009), which cites them from elsewhere.

For the data set the following is noted: pure nicotine placed on the skin of an ordinary human being.

As to `CN1CCCC1c1cccnc1` (stereo not shown) [nicotine], the lethal dose is 50 mg.
